According to publication PMC12430544 (Molecules, 2025):

Legend:
[1] = target: T1, acetylcholinesterase (AChE, from an electric eel) (Electrophorus electricus, UniProt O42275); assay: biochemical; conditions: for IC50: electric eel AChE, Ellman's method, pH 7.4, means ± SEM of at least three experiments, read-out: IC50 AChE Inhibition; for Selectivity Index = IC50 (AChE)/IC50 (BuChE): ratio of eeAChE and equine BuChE IC50
T1 construct: purchased Sigma-Aldrich
Procedure: (§1) Cholinesterase (ChE) inhibitory activity was evaluated using a modified Ellman’s spectrophotometric method. Acetylcholinesterase (AChE, from electric eel), butyrylcholinesterase (BuChE, from equine serum), 5,5′-dithiobis-(2-nitrobenzoic acid) (Ellman’s reagent, DTNB), S-butyrylthiocholine iodide (BTCI), acetylthiocholine iodide (ATCI), and tarcine hydrochloride were purchased from Sigma-Aldrich. Tarcine hydrochloride was used as a reference standard. All the assays were carried out in 0.1 M KH2PO4/K2HPO4 buffer (pH = 7.4). Stock solutions of tested compounds (10 mM) were prepared in DMSO (below 0.5%, v/v) and diluted in phosphate buffer. The assay was performed in 96-well plate by adding 25 μL of 1 mM acetylthiocholine iodide or butyrylthiocholine iodide used as substrate in the assay, 125 μL of 1 mM 5,5′-dithiobis-(2-nitrobenzoic acid) (DTNB), 25 μL of 0.1 M phosphate buffer (pH = 7.4), 25 μL of testing substance in various concentrations, and 50 μL of 0.2 Units/mL AChE from an electric eel or BuChE from equine serum, respectively. At least five concentrations of the test compounds were assayed. […] The enzyme activity and the percentage inhibition were determined.

[2] = target: T2, butyrylcholinesterase (BuChE, from horse serum) (Equus caballus, UniProt P81908); assay: biochemical; conditions: equine serum BuChE, Ellman's method, pH 7.4; means ± SEM of at least three experiments; read-out: IC50 BuChE Inhibition
T2 construct: purchased Sigma-Aldrich
Procedure: as §1

[3] = Metal chelation by UV–vis spectrometry, stoichiometry and affinity estimate (Zn); format: physicochemical; conditions: CH3OH/H2O (v/v = 9/1), 2L+M⇔ML2
Source text: (§2) Given the 8-hydroxy(amino)quinoline moiety with the properties to bind metal ions, the abilities of all the compounds in binding metal ions (Cu^II, Fe^III, Zn^II) were studied by UV–vis spectrometry. At first three compounds were chose to test the binding abilities. Upon the addition of CuCl2 or ZnSO4 the maximum absorption suffered a bathochromic shift, pointing out the formation of complex compound–Cu^II. […] […].
(§3) To determine the stoichiometry of the complex compound–Cu^II, the technique of continuous variations (also called Job’s method) was used by preparing solutions of compounds 15a, 17b and CuSO4 so that the sum of concentrations of both species was constant at […] in all samples, but the proportions of both components varied between 0 and 100%. The UV spectra were recorded and the absorbance change at the maximum absorption wavelength of the compound-Cu^II complex, meaning the 15a-Cu^II complex at 264 nm and the 17b-Cu^II at 265 nm, respectively. The absorbance change was plotted versus the mole fraction of the compound, giving two straight lines whose equations were calculated. […] […].
(§4) Since all the ligands studied L from ML2 species and in accordance with the Beer–Lambert law, complexation reactions can be summarized as 2L+M⇔ML2 with K = 1−α/4C^2α^3 , and α can be calculated from the data of the absorption.
(§5) Metal-chelating properties were evaluated by UV–vis spectrometry. To screen the ability of chelating metal ions, the same concentrations of compound and metal ion were mixed in CH3OH/H2O (v/v = 9/1), and the UV–vis spectrum was tested; compared to the compound, the maximum absorption that suffered a bathochromic shift would point out the formation of a complex compound–metal ion. The stoichiometry of the complex compound–metal ion was determined by Job’s method. The affinity of compounds 15–17 as ligands (excepted 15f, 16d, 16g, 16k) for Cu^II or Zn^II were estimated in the CH3OH/H2O solution (v/v = 9/1). Since all the ligands studied L from ML2 species and in accordance with the Beer–Lambert law, complexation reactions can be summarized as 2L+M⇔ML2 with K = 1−α/4C^2α^3 , and α = A/Amax; A was the data of absorption tested when the compound–metal ion = 2/1 under the maximum absorption wavelength of the complex, Amax was the absorption when the compound completely formed a complex with the metal ion; the data can be obtained as an approximation when the metal ion is in excess, and the absorption changes little as the concentration of metal ion still increases.

[4] = Metal chelation by UV–vis spectrometry, Job's method and affinity estimate (Cu); format: physicochemical; conditions: CH3OH/H2O (v/v = 9/1), UV–vis, 2L+M⇔ML2
Source text: as §2, §3, §4, §5

[5] = target: T3, Aβ1–42 (Homo sapiens, UniProt P05067); assay: Inhibition of self-induced Aβ1–42 aggregation (ThT fluorescence); format: biochemical; conditions: 20 μM compound, thioflavin-T fluorescence, mean ± SD of at least three independent experiments; read-out: Aβ Aggregation Inhibition (%), self-induced Aβ1–42
T3 construct: aggregation of Aβ1–42 synthetic peptide into fibrils
Procedure: Self-induced Aβ1–42 aggregation of all the compounds we obtained was also evaluated. […] ThT is a histochemical dye that is known to bind to the peptide β-sheet conformation, which is the predominant secondary structure of amyloid-beta fibrils. […] The inhibition studies were carried out upon incubating Aβ1–42 with and without the compounds.
Aβ1–42 was dissolved in 100% 1,1,1,3,3,3-[…] (HFIP) to a concentration of 1 mg/mL, sonicated in a water bath overnight, aliquoted into microcentrifuge tubes, dried under vacuum, and stored at −20 °C. Immediately prior to use, the HFIP-treated Aβ1–42 was dissolved in dimethylsulfoxide (DMSO) as the stored solution. […] Amounts of 5 μL of compound (200 μM) and 5 μL of 200 μM Aβ1–42 were added into 40 μL of phosphate-buffered saline (PBS at pH 7.4). After incubation at room temperature on a thermostatic shaker for 72 h, 100 μL of 5 μM ThT solution (in PBS at pH 7.4) was added to the reaction solution. […] The Aβ1–42 aggregation inhibition percentage was calculated using the following formula: inhibition percentage = (F1 − F2)/(F1 − F0) × 100%.

T1 sequence (O42275 24-633): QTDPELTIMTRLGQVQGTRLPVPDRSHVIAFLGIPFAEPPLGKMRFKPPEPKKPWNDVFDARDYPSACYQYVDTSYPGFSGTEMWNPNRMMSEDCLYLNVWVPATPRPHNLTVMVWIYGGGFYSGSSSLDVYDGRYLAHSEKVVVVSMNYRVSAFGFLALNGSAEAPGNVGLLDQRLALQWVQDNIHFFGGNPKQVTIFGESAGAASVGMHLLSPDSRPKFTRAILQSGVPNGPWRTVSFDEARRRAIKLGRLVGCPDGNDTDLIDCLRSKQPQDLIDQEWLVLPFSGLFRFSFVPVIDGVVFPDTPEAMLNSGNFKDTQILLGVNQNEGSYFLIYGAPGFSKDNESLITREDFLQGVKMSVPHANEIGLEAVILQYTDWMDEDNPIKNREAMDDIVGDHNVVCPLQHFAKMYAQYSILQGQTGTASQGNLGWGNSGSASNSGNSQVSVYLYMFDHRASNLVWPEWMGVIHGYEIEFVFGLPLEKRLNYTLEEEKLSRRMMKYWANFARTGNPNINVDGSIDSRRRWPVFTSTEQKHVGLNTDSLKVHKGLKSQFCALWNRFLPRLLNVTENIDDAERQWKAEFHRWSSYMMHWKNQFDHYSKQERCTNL
T2 sequence (P81908 whole entry): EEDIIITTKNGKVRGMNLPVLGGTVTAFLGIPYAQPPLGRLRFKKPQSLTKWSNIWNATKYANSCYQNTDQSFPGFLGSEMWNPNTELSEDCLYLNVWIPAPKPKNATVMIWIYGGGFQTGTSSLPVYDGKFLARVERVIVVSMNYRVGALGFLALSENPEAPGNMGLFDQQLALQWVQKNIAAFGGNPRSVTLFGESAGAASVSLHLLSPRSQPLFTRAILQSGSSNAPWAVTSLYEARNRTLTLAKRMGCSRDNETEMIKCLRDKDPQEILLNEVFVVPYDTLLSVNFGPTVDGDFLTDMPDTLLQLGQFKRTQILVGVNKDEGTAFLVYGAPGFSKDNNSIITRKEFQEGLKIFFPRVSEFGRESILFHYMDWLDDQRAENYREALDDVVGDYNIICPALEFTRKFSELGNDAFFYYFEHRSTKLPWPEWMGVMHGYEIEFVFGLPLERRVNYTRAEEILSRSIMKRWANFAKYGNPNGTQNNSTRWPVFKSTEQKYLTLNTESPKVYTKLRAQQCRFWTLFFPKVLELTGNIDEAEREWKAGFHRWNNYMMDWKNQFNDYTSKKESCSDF
T3 sequence (P05067 672-713): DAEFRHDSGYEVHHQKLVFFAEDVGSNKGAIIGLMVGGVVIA

| SMILES | IC50 [1] [nM] | Selectivity Index = IC50 (AChE)/IC50 (BuChE) [1] | IC50 [2] [nM] | LogK Zn (affinity of ligand for Zn^II, ML2) [3] | LogK Cu (affinity of ligand for Cu^II, ML2) [4] | inhibition at 20 µM [5] [%] |
| --- | --- | --- | --- | --- | --- | --- |
| O=C(CN1CCN(Cc2ccc(O)c3ncccc23)CC1)Nc1c2c(nc3ccccc13)CCCC2 [Compound 17a, 2-(4-((8-Hydroxyquinolin-5-yl)methyl)piperazin-1-yl)-N-(1,2,3,4-tetrahydroacridin-9-yl)acetamide] | 4460 ± 330 | 1.08 | 4130 ± 100 | 9.67 | 9.50 | 24.6 ± 3.7 |
| O=C(CN1CCN(Cc2ccc3c(Cl)ccc(O)c3n2)CC1)Nc1c2c(nc3ccccc13)CCCC2 [Compound 15b, 2-(4-((5-Chloro-8-hydroxyquinolin-2-yl)methyl)piperazin-1-yl)-N-(1,2,3,4-tetrahydroacridin-9-yl)acetamide] | 2180 ± 170 | 0.19 | 11500 ± 1560 | 11.34 | 10.09 | – |
| O=C(CN1CCN(Cc2ccc3c(Cl)cc(Cl)c(O)c3n2)CC1)Nc1c2c(nc3ccccc13)CCCC2 [Compound 15e, 2-(4-((5,7-Dichloro-8-hydroxyquinolin-2-yl)methyl)piperazin-1-yl)-N-(1,2,3,4-tetrahydroacridin-9-yl)acetamide] | 5730 ± 170 | 1.04 | 5530 ± 270 | 9.65 | 9.59 | 55.9 ± 2.5 |
| Oc1ccc(F)c2ccc(CN3CCN(CCCCCNc4c5c(nc6ccccc46)CCCC5)CC3)nc12 [Compound 16i, 5-Fluoro-2-((4-(5-((1,2,3,4-tetrahydroacridin-9-yl)amino)pentyl)piperazin-1-yl)methyl)quinolin-8-ol] | 400 ± 6 | 3.33 | 120 ± 20 | 9.49 | 9.49 | 55.6 ± 5.3 |
| Oc1cccc2ccc(CN3CCN(CCCCCNc4c5c(nc6ccccc46)CCCC5)CC3)nc12 [Compound 16h, 2-((4-(5-((1,2,3,4-Tetrahydroacridin-9-yl)amino)pentyl)piperazin-1-yl)methyl)quinolin-8-ol] | 210 ± 3 | 2.10 | 100 ± 10 | 9.63 | 9.87 | 93.2 ± 3.9 |
| Oc1c(Cl)cc(Cl)c2ccc(CN3CCN(CCNc4c5c(nc6ccccc46)CCCC5)CC3)nc12 [Compound 16c, 5,7-Dichloro-2-((4-(2-((1,2,3,4-tetrahydroacridin-9-yl)amino)ethyl)piperazin-1-yl)methyl)quinolin-8-ol] | 2680 ± 300 | 0.79 | 3410 ± 6 | 9.28 | 9.75 | 92.5 ± 3.3 |
| Nc1cccc2ccc(CN3CCN(CCCCCNc4c5c(nc6ccccc46)CCCC5)CC3)nc12 [Compound 16k, N-(5-(4-((8-aminoquinolin-2-yl)methyl)piperazin-1-yl)pentyl)-1,2,3,4-tetrahydroacridin-9-amine] | 210 ± 3 | 3.89 | 54 ± 4 | – | – | 86.7 ± 3.8 |
| Nc1cccc2ccc(CN3CCN(CCNc4c5c(nc6ccccc46)CCCC5)CC3)nc12 [Compound 16d, N-(2-(4-((8-aminoquinolin-2-yl)methyl)piperazin-1-yl)ethyl)-1,2,3,4-tetrahydroacridin-9-amine] | 180 ± 4 | 0.86 | 210 ± 3 | – | – | 84.7 ± 3.6 |
| Nc1cccc2ccc(CN3CCN(CC(=O)Nc4c5c(nc6ccccc46)CCCC5)CC3)nc12 [Compound 15f, 2-(4-((8-Aminoquinolin-2-yl)methyl)piperazin-1-yl)-N-(1,2,3,4-tetrahydroacridin-9-yl)acetamide] | 1240 ± 210 | 0.16 | 7850 ± 710 | – | – | 22 ± 1.8 |
| Oc1cccc2ccc(CN3CCN(CCNc4c5c(nc6ccccc46)CCCC5)CC3)nc12 [Compound 16a, 2-((4-(2-((1,2,3,4-Tetrahydroacridin-9-yl)amino)ethyl)piperazin-1-yl)methyl)quinolin-8-ol] | 440 ± 6 | 1.63 | 270 ± 4 | 9.48 | 9.63 | 77 ± 4.3 |
| Oc1ccc(F)c2ccc(CN3CCN(CCNc4c5c(nc6ccccc46)CCCC5)CC3)nc12 [Compound 16b, 5-Fluoro-2-((4-(2-((1,2,3,4-tetrahydroacridin-9-yl)amino)ethyl)piperazin-1-yl)methyl)quinolin-8-ol] | 190 ± 5 | 0.95 | 200 ± 3 | 9.63 | 9.99 | 22.9 ± 2.4 |
| COc1cc(/C=C/C(=O)CC(=O)/C=C/c2ccc(O)c(OC)c2)ccc1O [curcumin, reference compound] | – | – | – | – | – | 58.3 ± 2.5 |
| Oc1ccc(F)c2ccc(CN3CCN(CCCNc4c5c(nc6ccccc46)CCCC5)CC3)nc12 [Compound 16f, 5-Fluoro-2-((4-(3-((1,2,3,4-tetrahydroacridin-9-yl)amino)propyl)piperazin-1-yl)methyl)quinolin-8-ol] | 87 ± 2 | 3.11 | 28 ± 2 | 9.45 | 9.62 | 54.4 ± 2.9 |
| Oc1ccc(Cl)c2ccc(CN3CCN(CCCCCNc4c5c(nc6ccccc46)CCCC5)CC3)nc12 [Compound 16j, 5-Chloro-2-((4-(5-((1,2,3,4-tetrahydroacridin-9-yl)amino)pentyl)piperazin-1-yl)methyl)quinolin-8-ol] | 130 ± 20 | 2.89 | 45 ± 11 | 9.65 | 9.96 | 74.8 ± 4.7 |
